The values that follow are results of earlier work, collected in patent US20200330379A1, “NON-ORAL CANNABINOID FORMULATION AND METHOD OF TREATMENT” (Navinta NV, Inc., priority 2019, published 2020).

For the series the following is noted: limited by first-pass metabolism.

Regarding `CCCCCc1cc(O)c2c(c1)OC(C)(C)[C@@H]1CCC(C)=C[C@@H]21` [THC, (6aR,10aR)-6,6,9-trimethyl-3-pentyl-6a,7,8,10a-tetrahydro-6H-benzo[c]-chromen-1-ol], the Oral bioavailability is 10% and 20.
